We go through two molecules from BindingDB's records for doi:10.7270/Q2BC3WZZ (Pcmd, 2008).

In the experiment the target is T1, Coagulation factor XII (Homo sapiens, UniProt P00748).
T1 sequence (P00748 whole entry): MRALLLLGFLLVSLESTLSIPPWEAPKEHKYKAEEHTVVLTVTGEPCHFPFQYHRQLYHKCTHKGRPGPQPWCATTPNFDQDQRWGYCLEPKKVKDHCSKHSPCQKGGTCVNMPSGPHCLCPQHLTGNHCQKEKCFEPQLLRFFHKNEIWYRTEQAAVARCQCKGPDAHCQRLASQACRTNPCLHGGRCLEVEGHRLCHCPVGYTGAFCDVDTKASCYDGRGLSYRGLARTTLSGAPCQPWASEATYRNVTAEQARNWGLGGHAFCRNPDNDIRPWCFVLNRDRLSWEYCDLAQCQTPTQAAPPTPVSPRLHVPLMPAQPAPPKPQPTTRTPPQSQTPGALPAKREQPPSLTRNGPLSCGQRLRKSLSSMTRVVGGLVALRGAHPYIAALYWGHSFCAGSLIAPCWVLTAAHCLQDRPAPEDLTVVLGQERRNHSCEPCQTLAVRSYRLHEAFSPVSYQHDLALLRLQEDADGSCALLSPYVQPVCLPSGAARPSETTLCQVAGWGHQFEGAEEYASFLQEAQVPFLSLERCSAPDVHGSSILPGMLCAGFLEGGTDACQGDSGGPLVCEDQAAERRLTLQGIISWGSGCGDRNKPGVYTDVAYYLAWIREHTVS
In words: FXIIa inhibition potency, concentration-response curve, biochemical assay (AID 716).

Each structure is given as a SMILES string. Some results are limits rather than exact numbers.

For the molecule `C=CCOC(=O)C1=C(C)N=C(C)C(C(=O)OCC=C)C1c1ccc(O)cc1` (configuration not stated) [SMR000107649], the IC50 was greater than 50 µM.
Molecule `CC(C)C1c2c(-c3cccs3)n[nH]c2OC(=N)C1C#N` (configuration not stated) [SMR000014022] displayed an IC50 greater than 50 µM.

For orientation: IC50 means the point on the concentration scale where inhibition reaches its midpoint.
